Results published in US8710091B2, “Imidazolidine-2,4-dione derivatives, and use thereof as a cancer drug” (Ipsen Pharma S.A.S., priority 2009, dated 2014).

Legend:
Type in all cases: cell-based
LNCaP cells [1] = experiment: Anti-proliferative activity on LNCaP in complete medium (WST-1); conditions: Homo sapiens, 144 h, 144 h incubation, read-out: IC50 on the LNCaP cells in culture (concentration inhibiting cell proliferation by 50%)
Description: The anti-proliferative activity of the compounds of the present invention is determined on LNCaP in complete medium by applying the following experimental procedure:
The LNCaP cell type (ATCC, 1740) originating from a prostate carcinoma expressing the androgen receptor, this line is hormone-dependent.
Maintenance of the LNCaP line is carried out in complete culture medium: RPMI, 10% of foetal calf serum, 2 mM glutamine, 100 U/ml penicillin, 0.1 mg/ml of streptomycin and 0.01M HEPES, 1 mM sodium pyruvate, 40% of D-glucose. • Seeding the plates:
The LNCaP line is seeded at 20,000 cells/well in 90 μl of complete medium in 96-well plates coated with poly-D-lysine (Biocoat, Costar). • Treatment of the cells: 24 h after the seeding, the cells are treated with 10 μl/well of compound diluted in the culture medium. Experiments of the effect of doses of the compound are carried out on a scale of 1 nM to 100 µM. The concentrations used are the following: 1 nM/10/30/100/300/1000/3000/10,000/100,000 nM. Testosterone (SIGMA T1500) is used as a reference and tested at the same concentrations. The cells are incubated for 144 h at 37° C., 5% CO2. • Reading: On D6, 10 μL of the “WST-1 cell proliferation” reagent (Roche ref 1644807) is added to each well. After incubation for 2 hours at 37° C., 5% CO2, the absorbance at 450 nm is measured by spectrophotometry (Envision, Perkin Elmer). • Results: The experiments are carried out in duplicate and the best compounds are tested twice. […] 2. Antiproliferative Activity on LNCaP in Medium without Steroids: […]

DU145 cells = experiment: Antiproliferative activity on DU-145 in complete medium (WST-1); conditions: Homo sapiens, 144 h incubation, read-out: IC50 on the DU145 cells in culture (concentration inhibiting cell proliferation by 50%)
Description: The anti-proliferative activity of the compounds of the present invention is determined on DU-145 in complete medium.
Maintenance of the DU-145 line is carried out in DMEM, 10% of foetal calf serum, 2 mM of glutamine, 100 U/ml of penicillin, 0.1 mg/ml of streptomycin. • Seeding the plates: • The DU145 line is seeded at 400 or 800 cells/well in 90 μl of DMEM complete medium in 96-well plates (TPP). • Treatment of the cells: 24 h after the seeding, the cells are treated with 10 μl/well of compound diluted in the culture medium. Experiments showing the dose-effect of the compound are carried out on a scale of 1 nM to 100 μM. The concentrations used are the following: 1 nM/10/30/100/300/1000/3000/10,000/100,000 nM. The cells are incubated for 144 h at 37° C., 5% CO2. • Reading: On D6, 10 μL, of cell proliferation reagent WST-1 (Roche ref 1644807) is added to each well. After incubation for 2 to 4 hours at 37° C., 5% CO2, the absorbance at 450 nm is measured by spectrophotometry (Envision, Perkin Elmer). • Results: The experiments are carried out in duplicate and the best compounds are tested twice. […] 4. Measurement of the Disappearance of the Androgen Receptor

LNCaP cells [2] = experiment: Antiproliferative activity on LNCaP in medium without steroids (WST-1); conditions: 144 h, 1 nM to 100 μM
Description: The anti-proliferative activity of the compounds of the present invention is determined on LNCaP in medium without steroids.
The maintenance of the LNCaP line is carried out under the usual conditions in RPMI, 10% of foetal calf serum, 2 mM of glutamine, 100 U/ml of penicillin, 0.1 mg/ml of streptomycin and 0.01M HEPES, 1 mM sodium pyruvate, 40% of D-glucose.
For the study under conditions without steroids, 24 hours before the seeding the culture medium of the cells is eliminated. The cells are washed with PBS, then incubated in the presence of RPMI medium without phenol red, 10% of foetal calf serum without steroids (treatment with carbon), 2 mM of glutamine, 100 U/ml of penicillin, 0.1 mg/ml of streptomycin and 0.01M HEPES, 1 mM of sodium pyruvate, 40% of D-glucose. • Seeding the plates:
The LNCaP line is seeded at 20,000 cells/well in 90 μl of RPMI medium with 10% foetal calf serum without steroids in 96-well plates coated with poly-D-lysine (Biocoat, Costar). • Treatment of the cells: 24 h after seeding, the cells are treated with 10 μl/well of compound diluted in the culture medium. Experiments showing the dose-effect of the compound are carried out on a scale of 1 nM to 100 μM. The concentrations used are the following: 1 nM/10/30/100/300/1000/3000/10,000/100,000 nM. Testosterone (SIGMA T1500) is used as a reference and tested at the same concentrations. The cells are incubated for 144 h at 37° C., 5% CO2. • Reading: On D6, 10 μL of cell proliferation reagent WST-1 (Roche ref 1644807) is added to each well. After incubation for 2 to 4 hours at 37° C., 5% CO2, the absorbance at 450 nm is measured by spectrophotometry (Envision, Perkin Elmer). • Results: The experiments are carried out in duplicate and the best compounds are tested twice. […] 3. Antiproliferative Activity on DU-145 in Complete Medium: […]

IC50 (LNCaP cells [1]) [µM] | IC50 (DU145 cells) [µM] | SMILES | effect on the cell proliferation of LNCaP cultured in medium without steroids (FIG. 1) (LNCaP cells [2])
< 2 | > 10 | CCC(C)NC(=O)Nc1ccc(N2C(=O)N(CCCCCCCCC[S+]([O-])CCCC(F)(F)C(F)(F)F)C(C)(C)C2=O)cc1C (stereo not shown) [Example 28, 1-[4-(4,4-dimethyl-2,5-dioxo-3-{9-[(4,4,5,5,5-pentafluoropentyl)sulphinyl]nonyl}imidazolidin-1-yl)-2-methylphenyl]-3-(1-methylpropyl)urea] | –
< 2 | > 10 | Cc1cc(N2C(=O)N(CCCCCCCCCSCCCC(F)(F)C(F)(F)F)C(C)(C)C2=O)ccc1NS(N)(=O)=O [Example 30, N-[4-(4,4-dimethyl-2,5-dioxo-3-{9-[(4,4,5,5,5-pentafluoropentyl)sulphanyl]nonyl}imidazolidin-1-yl)-2-methylphenyl]sulphamide] | –
< 2 | > 10 | Cc1cc(N2C(=O)N(CCCCCCCCC[S+]([O-])CCCC(F)(F)C(F)(F)F)C(C)(C)C2=O)ccc1NS(N)(=O)=O (stereo not shown) [Example 31, N-[4-(4,4-dimethyl-2,5-dioxo-3-{9-[(4,4,5,5,5-pentafluoropentyl)sulphinyl]nonyl}imidazolidin-1-yl)-2-methylphenyl]sulphamide] | –
< 2 | > 10 | Cc1cc(N2C(=O)N(CCCCCCCCCS(=O)(=O)CCCC(F)(F)C(F)(F)F)C(C)(C)C2=O)ccc1NS(N)(=O)=O [Example 32, N-[4-(4,4-dimethyl-2,5-dioxo-3-{9-[(4,4,5,5,5-pentafluoropentyl)sulphonyl]nonyl}imidazolidin-1-yl)-2-methylphenyl]sulphamide] | –
< 2 | > 10 | O=C1N(c2ccc([N+](=O)[O-])c(C(F)(F)F)c2)C(=O)C2(CCC2)N1CCCCCCCCC[S+]([O-])CCCC(F)(F)C(F)(F)F (stereo not shown) [Example 34, 7-[4-nitro-3-(trifluoromethyl)phenyl]-5-{9-[(4,4,5,5,5-pentafluoropentyl)sulphinyl]nonyl}-5,7-diazaspiro[3.4]octane-6,8-dione] | –
< 2 | > 10 | CC1(C)C(=O)N(c2ccc([N+](=O)[O-])c(C(F)(F)F)c2)C(=O)N1CCOCCOCC[S+]([O-])CCCC(F)(F)C(F)(F)F (stereo not shown) [Example 37, 5,5-dimethyl-3-[4-nitro-3-(trifluoromethyl)phenyl]-1-[2-(2-{2-[(4,4,5,5,5-pentafluoropentyl)sulphinyl]ethoxy}ethoxy)ethyl]imidazolidine-2,4-dione] | –
< 2 | > 10 | CC(=O)N(C)c1ccc(N2C(=O)N(CCCCCCCCC[S+]([O-])CCCC(F)(F)C(F)(F)F)C(C)(C)C2=O)cc1C(F)(F)F (stereo not shown) [Example 40, N-[4-(4,4-dimethyl-2,5-dioxo-3-{9-[(4,4,5,5,5-pentafluoropentyl)sulphinyl]nonyl}imidazolidin-1-yl)-2-(trifluoromethyl)phenyl]-N-methylacetamide] | –
< 2 | > 10 | CN(C)CC(=O)Nc1ccc(N2C(=O)N(CCCCCCCCCSCCCC(F)(F)C(F)(F)F)C(C)(C)C2=O)cc1C(F)(F)F [Example 42, N-[4-(4,4-dimethyl-2,5-dioxo-3-{9-[(4,4,5,5,5-pentafluoropentyl)sulphanyl]nonyl}imidazolidin-1-yl)-2-(trifluoromethyl)phenyl]-N^2,N^2-dimethylglycinamide] | –
– | – | CC1(C)NC(=O)N(c2ccc([N+](=O)[O-])c(C(F)(F)F)c2)C1=O [nilutamide, reference compound] | biphasic profile with an agonist activity at low concentration followed by an inhibitory activity at high concentration

SMILES | IC50 (LNCaP cells [1]) [µM] | IC50 (DU145 cells) [µM] | effect on the cell proliferation of LNCaP cultured in medium without steroids (FIG. 1) (LNCaP cells [2])
Cc1cc(N2C(=O)N(CCCCCCCCC[S+]([O-])CCCC(F)(F)C(F)(F)F)C(C)(C)C2=O)ccc1[N+](=O)[O-] (stereo not shown) [Example 24, 5,5-dimethyl-3-(3-methyl-4-nitrophenyl)-1-{9-[(4,4,5,5,5-pentafluoropentyl)sulphinyl]nonyl}imidazolidine-2,4-dione] | < 2 | > 10 | –
